According to patent publication US20250161312A1, “A METHOD FOR THE TREATMENT OF CHEMOTHERAPEUTIC DRUG-INDUCED NEPHROTOXICITY” (INSTITUT NATIONAL DE LA SANTÉ ET DE LA RECHERCHE MÉDICALE, priority 2022, published 2025):

Columns and labels:
RPTEC/hTERT cells = experiment: Red Oil staining of RPTEC/hTERT cells; type: cell-based, human; conditions: cisplatin 50 μM, 25 μM KW-6002, 48 hours
Method: FIG. 6. KW6002 alleviates the cisplatin-induced nephrotoxicity associated with apoptosis, lipid metabolism, and oxidative stress. (A) Tail moment assessed by comet assay; 50 cells/condition were analyzed. (B and C) KW6002 attenuates cisplatin-induced renal lipid accumulation, assessed by Red Oil staining. […] Results are the mean±SEM (n=6-9 mice/group). (F-H) KW6002 attenuated cisplatin-induced oxidative stress in RPTEC/hTERT1 cells. (F and G) Gene expression of Nrf2 (F) and HO1 (G). […] Results are the mean±SEM (n=3 independent experiments).
10 μm frozen kidney mouse sections were fixed with ethanol (60%) then incubated for 15 min with Oil Red O Solution (Fisher Biotech) dissolved in isopropanol. After several washes with ddH2O, samples were incubated 3 min with hematoxylin. Lipid droplets are stained in red whereas nuclei appeared blue. […] RPTEC/hTERT cells were fixed with ethanol (60%) then incubated for 15 min with Oil Red O Solution. The cells were washed three times with ddH2O and incubated 3 min with hematoxylin. Coverslips were rinsed with H2O before mounting on microscope slides using glycerol gelatin aqueous slide mounting medium (Sigma). Quantifications were performed blindly using ImageJ software. […] The resulting red color images were quantified using a custom threshold (0.173 for RPTEC/hTERT cells and 0.140 for kidney stainings).

[1] = tested on: LLC1 tumors in C57BL6/J mice; experiment: LLC1 in vivo tumor model (syngeneic, sub-chronic cisplatin)
Method: FIG. 1. Schematic representation of the different animal procedures. (A) Acute cisplatin-induced kidney injury. […] (B) Sub-chronic cisplatin-induced kidney injury. […] (C) KW-6002 administration schedule in the acute model. […] (D) KW-6002 administration schedule in the sub-chronic model.
LLC1 cells (Lewis Lung Cancer cells, ATCC® CRL-1642™) were cultured in DMEM with 10% fetal calf serum and penicillin-streptomycin. LLC1 cells ([…]) in PBS: matrigel (1:1, for a total volume of 100 μL) were subcutaneously injected in the right flank of animals. Tumors were measured twice a week with calipers and their volumes were estimated using the following equation: ½ (length×width2).
Prior sacrifice by cervical dislocation, retro-orbital blood samples were collected in heparinized tubes and centrifuged for 10 min at 2000 rpm at room temperature. Renal function was assessed by Blood urea nitrogen (BUN) measurement using a AU480 Chemistry Analyzer (Beckman Coulter). At the time of sacrifice, kidneys or LLC1 tumors were harvested and stored in either “RNA later” solution (Thermo Fisher), 4% neutral buffered formalin or snap-frozen in liquid nitrogen.
Paraffin-embedded sections (3 μm thick) were deparaffinized with xylene and rehydrated in successive ethanol dilutions. Then, antigen retrieval was done by incubation in sub-boiling 10 mM sodium citrate buffer. Tissues were permeabilized in a 0.4% Triton X-100 solution, and nonspecific binding was blocked with a 5% BSA solution in TBS for 2 hours. Sections were then incubated overnight with an anti-γH2AX antibodies (1:50; no. 9718, Cell Signaling Technology). After washing, the secondary antibody (A10042) was incubated for 45 minutes at room temperature. Again, after washing, the nuclei were stained with a 300 nM DAPI solution (D1306, Life Technologies, Thermo Fisher Scientific). The slides were analyzed using a Zeiss LSM 880 confocal microscope. Quantification was performed using ImageJ. For immunofluorescence studies in free-floating sections, mice were deeply anesthetized with pentobarbital sodium (50 mg/kg, i.p.) and then transcardially perfused with cold NaCl (0.9%) and 4% paraformaldehyde in PBS (pH 7.4). Kidneys were removed, post-fixed for 24 hours in 4% paraformaldehyde, and cryoprotected in 30% sucrose before being frozen at −40° C. in isopentane (methyl-butane) and stored at −80° C. Longitudinal kidney sections (40 μm) were obtained using a Leica cryostat. Free-floating sections were stored in PBSazide (0.2%) at 4° C. Longitudinal kidney sections were incubated with a donkey serum (D9663, MilliporeSigma) at 10% in PBS Triton X-100 (0.2%) for 1 hour and then incubated with anti-A2AR primary antibody (1:50; GP-Af1000, Frontiers Institute) for 72 hours at 4° C. in Signal Boost (8114, Cell Signaling Technology). Alexa Fluor 568-conjugated secondary antibodies (1:500; Life Technologies, Thermo Fisher Scientific) were incubated overnight at room temperature. Lectin staining was performed by incubating sections for 1 hour at room temperature with Lotus tetragonolobus FITC conjugate (Vector Laboratories, FL-1321-2) diluted to 2 μg/mL in blocking medium. Sections were counterstained with DAPI (1:5,000; no. 62247, Thermo Fisher Scientific) and mounted on superfrost slides and left to dry. Then, they were covered with Vectashield Vibrance Antifade Mounting Medium (H-1700, Vector Laboratories). Images were acquired using a Zeiss LSM 710 confocal laser-scanning microscope at ×20 magnification. 3D reconstruction of confocal image stacks was performed using Imaris software (Bitplane).
Reverse transcription was performed on 1 μg of RNA using high-capacity cDNA reverse transcription kit (Thermo Fisher), according the manufacturer's recommendation. Real time PCR was performed on a StepOne device using Taqman Gene Expression Master Mix (Thermo Fisher), following manufacturer's recommendations. […]

RPTEC/hTERT1 cells = experiment: Catalase activity; type: cell-based, human; conditions: cisplatin 50 μM, KW6002 25 μM, 48 hours
Method: Catalase activity was assessed using the Catalase Colorimetric Activity Kit (Thermo Fisher Scientific) according to the manufacturer's instructions.

Structure (SMILES): CCn1c(=O)c2c(nc(/C=C/c3ccc(OC)c(OC)c3)n2C)n(CC)c1=O [KW-6002, 8-[(E)-2-(3,4-dimethoxyphenyl)vinyl]-1,3-diethyl-7-methyl-3,7-dihydro-1H-purine-2,6-dione]
- lipid accumulation induced by cisplatin (RPTEC/hTERT cells): significantly reduced
- cisplatin accumulation (platinum levels) in the kidney ([1]; KW-6002-treated mice, FIG. 4A): lowered
- cisplatin accumulation (platinum levels) in the tumors ([1]; KW-6002-treated mice, FIG. 4B): remained unchanged
- anti-tumoral response to cisplatin (tumor size) ([1]; co-treatment with cisplatin, FIG. 3): did not compromise the anti-tumoral response to cisplatin
- cisplatin-induced DNA damage, H2AX+ cells in tumors ([1]; in vivo LLC1 syngeneic model): increased number of H2AX+ cells
- expression of some efflux transporters in kidneys ([1]; qPCR, FIG. 4A): significantly increased
- transporter expression in tumors ([1]; qPCR, FIG. 4B): no expression changes
- ability to protect from cisplatin-induced kidney injury ([1]; tumor-bearing mice): preserved
- cisplatin-induced decrease in catalase activity (RPTEC/hTERT1 cells): normalized
